Laboratory results: the supplement of paper PMC13207355
Where a name gives a salt, the structure may show the parent alone.

Tests used:
Details in all cases: exposure time: 72 h
E21 [1] = patient-derived glioblastoma stem cells of mesenchymal subtype; assay: phenotypic distance (Euclidean, principal components) from DMSO controls (arbitrary units); higher = stronger morphological change
E31 [2] = patient-derived glioblastoma stem cells of proneural subtype; assay: as above
FT3469 [3] = normal neural stem cell line; assay: as above
E13 [4] = patient-derived glioblastoma stem cells of classical subtype; assay: as above
E34 [5] = patient-derived glioblastoma stem cells of proneural subtype; assay: as above
E57 [6] = patient-derived glioblastoma stem cells of mesenchymal subtype; assay: as above
E28 [7] = patient-derived glioblastoma stem cells of classical subtype; assay: as above
E21 [8] = assay: surviving fraction (nuclei count normalised to DMSO); higher = more cells surviving (less toxic)
E31 [9] = assay: as above
FT3469 [10] = assay: as above
E13 [11] = assay: as above
E34 [12] = assay: as above
E57 [13] = assay: as above
E28 [14] = assay: as above
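Wherever phenotypic distance (Euclidean, principal components) from DMSO controls is given: cell Painting imaging in 384-well plates, CellProfiler features reduced to at least 20 principal components, Euclidean distance versus same-plate DMSO vehicle wells (0.1% v/v), median over six images per well.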
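Wherever surviving fraction (nuclei count normalised to DMSO) is given: nuclei counted by high-content imaging of Hoechst-stained cells in laminin-coated 384-well plates, relative to 0.1% DMSO vehicle wells, with staurosporine as cell-death control.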

SMILES: NCCCP(=O)(O)O [3-Aminopropylphosphonic acid]
- phenotypic distance (E21 [1]; 4.1 nM): 1.29
- phenotypic distance (E21 [1]; 12.3 nM): 5.29
- phenotypic distance (E21 [1]; 37 nM): 0.988
- phenotypic distance (E21 [1]; 111.1 nM): 1.15
- phenotypic distance (E21 [1]; 333.3 nM): 1.08
- phenotypic distance (E21 [1]; 1000 nM): 0.704
- phenotypic distance (E21 [1]; 3000 nM): 0.925
- phenotypic distance (E31 [2]; 4.1 nM): 0.65
- phenotypic distance (E31 [2]; 12.3 nM): 0.816
- phenotypic distance (E31 [2]; 37 nM): 0.948
- phenotypic distance (E31 [2]; 111.1 nM): 0.488
- phenotypic distance (E31 [2]; 333.3 nM): 0.824
- phenotypic distance (E31 [2]; 1000 nM): 0.792
- phenotypic distance (E31 [2]; 3000 nM): 0.929
- phenotypic distance (FT3469 [3]; 4.1 nM): 1.45
- phenotypic distance (FT3469 [3]; 12.3 nM): 0.83
- phenotypic distance (FT3469 [3]; 37 nM): 0.983
- phenotypic distance (FT3469 [3]; 111.1 nM): 0.685
- phenotypic distance (FT3469 [3]; 333.3 nM): 0.68
- phenotypic distance (FT3469 [3]; 1000 nM): 0.784
- phenotypic distance (FT3469 [3]; 3000 nM): 2.45
- phenotypic distance (E13 [4]; 4.1 nM): 0.873
- phenotypic distance (E13 [4]; 12.3 nM): 0.485
- phenotypic distance (E13 [4]; 37 nM): 1.1
- phenotypic distance (E13 [4]; 111.1 nM): 0.795
- phenotypic distance (E13 [4]; 333.3 nM): 1.09
- phenotypic distance (E13 [4]; 1000 nM): 0.46
- phenotypic distance (E13 [4]; 3000 nM): 0.816
- phenotypic distance (E34 [5]; 4.1 nM): 0.981
- phenotypic distance (E34 [5]; 12.3 nM): 3.38
- phenotypic distance (E34 [5]; 37 nM): 1.08
- phenotypic distance (E34 [5]; 111.1 nM): 0.945
- phenotypic distance (E34 [5]; 333.3 nM): 0.527
- phenotypic distance (E34 [5]; 1000 nM): 4.28
- phenotypic distance (E34 [5]; 3000 nM): 0.559
- phenotypic distance (E57 [6]; 4.1 nM): 1.04
- phenotypic distance (E57 [6]; 12.3 nM): 0.788
- phenotypic distance (E57 [6]; 37 nM): 0.764
- phenotypic distance (E57 [6]; 111.1 nM): 0.744
- phenotypic distance (E57 [6]; 333.3 nM): 0.772
- phenotypic distance (E57 [6]; 1000 nM): 1.04
- phenotypic distance (E57 [6]; 3000 nM): 1.21
- phenotypic distance (E28 [7]; 4.1 nM): 0.627
- phenotypic distance (E28 [7]; 12.3 nM): 0.887
- phenotypic distance (E28 [7]; 37 nM): 1.05
- phenotypic distance (E28 [7]; 111.1 nM): 0.933
- phenotypic distance (E28 [7]; 333.3 nM): 1.07
- phenotypic distance (E28 [7]; 1000 nM): 0.732
- phenotypic distance (E28 [7]; 3000 nM): 1.53
- surviving fraction (E21 [8]; 4.1 nM): 0.806
- surviving fraction (E21 [8]; 12.3 nM): 0.98
- surviving fraction (E21 [8]; 37 nM): 0.902
- surviving fraction (E21 [8]; 111.1 nM): 0.886
- surviving fraction (E21 [8]; 333.3 nM): 1.08
- surviving fraction (E21 [8]; 1000 nM): 1
- surviving fraction (E21 [8]; 3000 nM): 0.86
- surviving fraction (E31 [9]; 4.1 nM): 1.14
- surviving fraction (E31 [9]; 12.3 nM): 0.932
- surviving fraction (E31 [9]; 37 nM): 1
- surviving fraction (E31 [9]; 111.1 nM): 0.983
- surviving fraction (E31 [9]; 333.3 nM): 1.05
- surviving fraction (E31 [9]; 1000 nM): 0.771
- surviving fraction (E31 [9]; 3000 nM): 0.945
- surviving fraction (FT3469 [10]; 4.1 nM): 0.65
- surviving fraction (FT3469 [10]; 12.3 nM): 0.955
- surviving fraction (FT3469 [10]; 37 nM): 0.892
- surviving fraction (FT3469 [10]; 111.1 nM): 0.941
- surviving fraction (FT3469 [10]; 333.3 nM): 1.09
- surviving fraction (FT3469 [10]; 1000 nM): 1.08
- surviving fraction (FT3469 [10]; 3000 nM): 1.06
- surviving fraction (E13 [11]; 4.1 nM): 0.801
- surviving fraction (E13 [11]; 12.3 nM): 0.888
- surviving fraction (E13 [11]; 37 nM): 1
- surviving fraction (E13 [11]; 111.1 nM): 0.872
- surviving fraction (E13 [11]; 333.3 nM): 0.982
- surviving fraction (E13 [11]; 1000 nM): 0.884
- surviving fraction (E13 [11]; 3000 nM): 0.962
- surviving fraction (E34 [12]; 4.1 nM): 0.923
- surviving fraction (E34 [12]; 12.3 nM): 1.06
- surviving fraction (E34 [12]; 37 nM): 0.998
- surviving fraction (E34 [12]; 111.1 nM): 1.09
- surviving fraction (E34 [12]; 333.3 nM): 1.08
- surviving fraction (E34 [12]; 1000 nM): 1.05
- surviving fraction (E34 [12]; 3000 nM): 1.05
- surviving fraction (E57 [13]; 4.1 nM): 0.924
- surviving fraction (E57 [13]; 12.3 nM): 0.912
- surviving fraction (E57 [13]; 37 nM): 1.01
- surviving fraction (E57 [13]; 111.1 nM): 1.06
- surviving fraction (E57 [13]; 333.3 nM): 0.959
- surviving fraction (E57 [13]; 1000 nM): 0.941
- surviving fraction (E57 [13]; 3000 nM): 1.07
- surviving fraction (E28 [14]; 4.1 nM): 0.762
- surviving fraction (E28 [14]; 12.3 nM): 0.907
- surviving fraction (E28 [14]; 37 nM): 0.775
- surviving fraction (E28 [14]; 111.1 nM): 0.984
- surviving fraction (E28 [14]; 333.3 nM): 0.931
- surviving fraction (E28 [14]; 1000 nM): 0.888
- surviving fraction (E28 [14]; 3000 nM): 0.713

SMILES: CN1[C@@H]2CC[C@H]1CC(OC(=O)c1c[nH]c3ccccc13)C2 (stereo partly specified) [3-Tropanyl-indole-3-carboxylate hydrochloride]
- phenotypic distance (E21 [1]; 4.1 nM): 0.866
- phenotypic distance (E21 [1]; 12.3 nM): 0.871
- phenotypic distance (E21 [1]; 37 nM): 0.74
- phenotypic distance (E21 [1]; 111.1 nM): 0.815
- phenotypic distance (E21 [1]; 333.3 nM): 0.781
- phenotypic distance (E21 [1]; 1000 nM): 0.853
- phenotypic distance (E21 [1]; 3000 nM): 1.33
- phenotypic distance (E31 [2]; 4.1 nM): 0.406
- phenotypic distance (E31 [2]; 12.3 nM): 0.329
- phenotypic distance (E31 [2]; 37 nM): 0.778
- phenotypic distance (E31 [2]; 111.1 nM): 0.924
- phenotypic distance (E31 [2]; 333.3 nM): 1.07
- phenotypic distance (E31 [2]; 1000 nM): 0.762
- phenotypic distance (E31 [2]; 3000 nM): 0.758
- phenotypic distance (FT3469 [3]; 4.1 nM): 0.942
- phenotypic distance (FT3469 [3]; 12.3 nM): 0.464
- phenotypic distance (FT3469 [3]; 37 nM): 2.87
- phenotypic distance (FT3469 [3]; 111.1 nM): 0.576
- phenotypic distance (FT3469 [3]; 333.3 nM): 0.57
- phenotypic distance (FT3469 [3]; 1000 nM): 0.775
- phenotypic distance (FT3469 [3]; 3000 nM): 0.616
- phenotypic distance (E13 [4]; 4.1 nM): 0.681
- phenotypic distance (E13 [4]; 12.3 nM): 1.03
- phenotypic distance (E13 [4]; 37 nM): 0.87
- phenotypic distance (E13 [4]; 111.1 nM): 0.726
- phenotypic distance (E13 [4]; 333.3 nM): 0.624
- phenotypic distance (E13 [4]; 1000 nM): 1.01
- phenotypic distance (E13 [4]; 3000 nM): 1.66
- phenotypic distance (E34 [5]; 4.1 nM): 1.09
- phenotypic distance (E34 [5]; 12.3 nM): 0.577
- phenotypic distance (E34 [5]; 37 nM): 0.765
- phenotypic distance (E34 [5]; 111.1 nM): 1.86
- phenotypic distance (E34 [5]; 333.3 nM): 0.741
- phenotypic distance (E34 [5]; 1000 nM): 1.59
- phenotypic distance (E34 [5]; 3000 nM): 1.13
- phenotypic distance (E57 [6]; 4.1 nM): 0.753
- phenotypic distance (E57 [6]; 12.3 nM): 0.699
- phenotypic distance (E57 [6]; 37 nM): 0.615
- phenotypic distance (E57 [6]; 111.1 nM): 0.914
- phenotypic distance (E57 [6]; 333.3 nM): 0.614
- phenotypic distance (E57 [6]; 1000 nM): 1.06
- phenotypic distance (E57 [6]; 3000 nM): 1.1
- phenotypic distance (E28 [7]; 4.1 nM): 1.03
- phenotypic distance (E28 [7]; 12.3 nM): 0.793
- phenotypic distance (E28 [7]; 37 nM): 0.737
- phenotypic distance (E28 [7]; 111.1 nM): 0.922
- phenotypic distance (E28 [7]; 333.3 nM): 0.691
- phenotypic distance (E28 [7]; 1000 nM): 0.845
- phenotypic distance (E28 [7]; 3000 nM): 1.24
- surviving fraction (E21 [8]; 4.1 nM): 0.945
- surviving fraction (E21 [8]; 12.3 nM): 0.965
- surviving fraction (E21 [8]; 37 nM): 0.912
- surviving fraction (E21 [8]; 111.1 nM): 1
- surviving fraction (E21 [8]; 333.3 nM): 0.935
- surviving fraction (E21 [8]; 1000 nM): 0.929
- surviving fraction (E21 [8]; 3000 nM): 0.821
- surviving fraction (E31 [9]; 4.1 nM): 0.893
- surviving fraction (E31 [9]; 12.3 nM): 0.975
- surviving fraction (E31 [9]; 37 nM): 0.905
- surviving fraction (E31 [9]; 111.1 nM): 0.978
- surviving fraction (E31 [9]; 333.3 nM): 1.17
- surviving fraction (E31 [9]; 1000 nM): 0.945
- surviving fraction (E31 [9]; 3000 nM): 0.906
- surviving fraction (FT3469 [10]; 4.1 nM): 1.11
- surviving fraction (FT3469 [10]; 12.3 nM): 0.924
- surviving fraction (FT3469 [10]; 37 nM): 1.07
- surviving fraction (FT3469 [10]; 111.1 nM): 1.06
- surviving fraction (FT3469 [10]; 333.3 nM): 0.843
- surviving fraction (FT3469 [10]; 1000 nM): 0.927
- surviving fraction (FT3469 [10]; 3000 nM): 0.855
- surviving fraction (E13 [11]; 4.1 nM): 1.02
- surviving fraction (E13 [11]; 12.3 nM): 0.939
- surviving fraction (E13 [11]; 37 nM): 0.913
- surviving fraction (E13 [11]; 111.1 nM): 0.975
- surviving fraction (E13 [11]; 333.3 nM): 0.828
- surviving fraction (E13 [11]; 1000 nM): 0.931
- surviving fraction (E13 [11]; 3000 nM): 0.699
- surviving fraction (E34 [12]; 4.1 nM): 0.923
- surviving fraction (E34 [12]; 12.3 nM): 0.963
- surviving fraction (E34 [12]; 37 nM): 1.2
- surviving fraction (E34 [12]; 111.1 nM): 0.942
- surviving fraction (E34 [12]; 333.3 nM): 0.904
- surviving fraction (E34 [12]; 1000 nM): 0.885
- surviving fraction (E34 [12]; 3000 nM): 0.9
- surviving fraction (E57 [13]; 4.1 nM): 0.904
- surviving fraction (E57 [13]; 12.3 nM): 0.959
- surviving fraction (E57 [13]; 37 nM): 1.02
- surviving fraction (E57 [13]; 111.1 nM): 1.02
- surviving fraction (E57 [13]; 333.3 nM): 1.02
- surviving fraction (E57 [13]; 1000 nM): 1.04
- surviving fraction (E57 [13]; 3000 nM): 0.94
- surviving fraction (E28 [14]; 4.1 nM): 1.25
- surviving fraction (E28 [14]; 12.3 nM): 0.858
- surviving fraction (E28 [14]; 37 nM): 1.06
- surviving fraction (E28 [14]; 111.1 nM): 0.728
- surviving fraction (E28 [14]; 333.3 nM): 0.943
- surviving fraction (E28 [14]; 1000 nM): 0.894
- surviving fraction (E28 [14]; 3000 nM): 0.734
